For orientation: melting point means the temperature of the solid-liquid transition.

Structures are written as SMILES. Like-named read-outs stand apart in the source and are kept apart here.

The values that follow come from US20120010075A1 (priority 2009, published 2012).

Data set [1] has as its system Phytophthora infestans. The data set is classed as in vivo, Phytophthora infestans on tomato. As to conditions: applied 24 h before inoculation, assessed 7 days after inoculation.
In data set [2] the test system is Leptosphaeria nodorum (LEPTNO). As to the kind of experiment: In vitro fungitoxicity of hydrazones with and without copper towards Leptosphaeria nodorum (Example 26). Type of data set: cell-based. As to conditions: 72 h at 25° C.; for inhibition of growth at 0.05 µg/mL: Parastagonospora nodorum, 72 h, copper-minus medium, read-out: LEPTNO % Inhn. Minus Copper Observed.

[3] abbreviates: hydrazone 50 ppm with 50 μM CuCl2.2H2O, tomato late blight.
Where [4] appears, read: test compound Concn. 0.05 μg/mL.
The mark [5] stands for this setting: copper-plus medium (CuCl2 10 μM), test compound Concn. 0.05 μg/mL.
The mark [6] stands for this setting: hydrazone 50 ppm + 50 μM CuCl2.2H2O, tomato.
[7] abbreviates: compound 0.05 μg/mL, copper-plus medium (CuCl2.2H2O).

In turn, `C/C(=N\NC(=O)c1ccc(Br)cc1)c1cccc([N+](=O)[O-])c1O` [Example 522] yielded a melting point of 244 to 252 °C. Moreover, the “TLB % Control” value in data set [1] (setting [3]) is 95.0%. In addition, in data set [2] (setting [4]), the inhibition of growth at 0.05 µg/mL was 9.4%. Besides, in data set [2] (setting [5]), the “LEPTNO % Inhn. Plus Copper Observed” value is reported as 97.3%.
On to `O=C(N/N=C/c1cc(Cl)cc(Cl)c1O)c1cccc(Oc2ccccc2)c1` [Example 46], for which the melting point lay within 170 to 171 °C. Also, in data set [1] (setting [6]), the “TLB % Control” value turned out to be 72.7%. In addition, the inhibition of growth at 0.05 µg/mL in data set [2] (compound 0.05 μg/mL) turned out to be 20.5%. Further, the “LEPTNO % Inhn. Plus Copper Observed” value in data set [2] (setting [7]) is on record as 95.9%.
`O=C(N/N=C/c1cccc(C(F)(F)F)c1O)c1cccc(F)c1` [Example 345] yielded a melting point of 176 to 180 °C. The “TLB % Control” value in data set [1] (setting [3]) was 97.0%. Also, in data set [2] (setting [4]), the inhibition of growth at 0.05 µg/mL came out at 18.8%. For the same molecule, the “LEPTNO % Inhn. Plus Copper Observed” value in data set [2] (setting [5]) was 97.9%.
The molecule `O=C(N/N=C/c1cc(Cl)cc(Cl)c1O)c1cccc(OC(F)(F)F)c1` [Example 250] showed a melting point of 180 to 182 °C. Further, the “TLB % Control” value in data set [1] (setting [6]) was 97.0%. Besides, the inhibition of growth at 0.05 µg/mL in data set [2] (compound 0.05 μg/mL) was determined as 8.7%. The “LEPTNO % Inhn. Plus Copper Observed” value in data set [2] (setting [7]) turned out to be 98.1%.
Consider `COc1ccc(C(=O)N/N=C(\C)c2cccc(Cl)c2O)cc1` [Example 499], for which the melting point lay within 203 to 204 °C. In addition, the “TLB % Control” value in data set [1] (setting [3]) worked out at 85.0%. Also, the inhibition of growth at 0.05 µg/mL in data set [2] (setting [4]) was found to be 0%. Moreover, the “LEPTNO % Inhn. Plus Copper Observed” value in data set [2] (setting [5]) was determined as 97.4%.
The corresponding values for `C/C(=N\NC(=O)c1ccccc1C)c1cc(C(F)(F)F)ccc1O` [Example 528] are 200 to 203 °C, 73.0%, 8.7% and 97.7%.
In the same order, the values of `O=C(N/N=C/c1cc(C(F)(F)F)ccc1O)c1cccc(Cl)c1` [Example 439] are 187 to 197 °C, 96.0%, 0% and 100.0%.
As to `C/C(=N\NC(=O)c1ccccc1Br)c1cccc([N+](=O)[O-])c1O` [Example 524], the melting point fell in the range of 186 to 188 °C. Besides, in data set [1] (setting [3]), the “TLB % Control” value came to 39.0%. Moreover, the inhibition of growth at 0.05 µg/mL in data set [2] (setting [4]) is 9.3%. Further, the “LEPTNO % Inhn. Plus Copper Observed” value in data set [2] (setting [5]) stood at 95.8%.
`C/C(=N\NC(=O)c1ccccc1)c1ccc(Cl)cc1O` [Example 251] showed a melting point of 236 to 237 °C. Moreover, the “TLB % Control” value in data set [1] (setting [6]) amounted to 33.0%. Further, the inhibition of growth at 0.05 µg/mL in data set [2] (compound 0.05 μg/mL) came out at 3.5%. Besides, in data set [2] (setting [7]), the “LEPTNO % Inhn. Plus Copper Observed” value is 98.1%.
Molecule `Cc1ccc(C(=O)N/N=C/c2cc(C(F)(F)F)ccc2O)cc1` [Example 436] came in with a melting point of 245 to 249 °C. For the same molecule, the “TLB % Control” value in data set [1] (setting [3]) is 94.0%. For the same molecule, the inhibition of growth at 0.05 µg/mL in data set [2] (setting [4]) came to 14.6%. Also, the “LEPTNO % Inhn. Plus Copper Observed” value in data set [2] (setting [5]) is recorded as 98.2%.
Molecule `COc1cc(O)c(/C(C)=N/NC(=O)c2ccc(C(F)(F)F)cc2)c(OC)c1` [Example 571] displayed a melting point of 131 to 133 °C. For the same molecule, the “TLB % Control” value in data set [1] (setting [3]) is reported as 31.0%. The inhibition of growth at 0.05 µg/mL in data set [2] (setting [4]) worked out at 0%. Moreover, the “LEPTNO % Inhn. Plus Copper Observed” value in data set [2] (setting [5]) came to 84.7%.
Consider `O=C(N/N=C/c1ccc(Cl)c(Cl)c1O)c1ccccc1O` [Example 362], for which the melting point is 280 to 282 °C. Further, the “TLB % Control” value in data set [1] (setting [3]) is on record as 97.0%. For the same molecule, the inhibition of growth at 0.05 µg/mL in data set [2] (setting [4]) was 11.1%. Further, the “LEPTNO % Inhn. Plus Copper Observed” value in data set [2] (setting [5]) was determined as 97.2%.
In the same order, the values of `C/C(=N\NC(=O)c1cc2ccccc2cc1O)c1cc(Cl)cc(Cl)c1O` [Example 564] are 312 to 315 °C, 1.3%, 17.4% and 94.2%.
`O=C(N/N=C/c1c(Cl)ccc(Cl)c1O)c1ccccc1` [Example 247] registered a melting point of 204 to 205 °C. In addition, in data set [1] (setting [6]), the “TLB % Control” value is given as 84.7%. Also, the inhibition of growth at 0.05 µg/mL in data set [2] (compound 0.05 μg/mL) worked out at 10.1%. Also, the “LEPTNO % Inhn. Plus Copper Observed” value in data set [2] (setting [7]) was determined as 94.0%.
